Columns and labels:
[1] = system: TGF-β receptors in Mv1Lu cells; test: Binding of 125I-TGF-β2 to Mv1Lu cells in the presence of α2M*; format: cell-based, mink; conditions: 30 μM arachidonic acid, 200 μg/ml α2M*
Source text: The levels of TGF ? β and ? 2M* also increase dramatically. α2M* is capable of inhibiting TGF- ? activity by forming complexes with TGF- ? and thus preventing it from binding to TGF ? β receptors in cells involved. Fatty acids may potentiate TGF ? β activity by blocking complex formation of ? 2M* and TGF ? β under these conditions. To test this possibility, we determined the effects of arachidonic acid on ^125I-TGF- ? 2 binding (in the presence and absence of α2M*) to Mv1Lu cells. ? 2M* is known to inhibit TGF- ? 2 more strongly than TGF ? β1 binding to T receptors in cells (13). Various concentrations of ^125I-TGF- ? 2 were preincubated with 200 μg/ml of ? 2M* in the presence or absence of 30 μM arachidonic acid for 30 min prior to the performance of binding assays in Mv1Lu cells. […] The residual ^125I-TGF- ? binding associated with the cells after ? 2M* inhibition was mainly due to non-specific binding of ^125I-TGF- ? 2. […] In the presence of 200 μg/ml of ? 2M*, the dose-response curve of TGF ? β2 shifted to the right. […] Addition of arachidonic acid at 0.5 and 1 μM reversed the inhibitory effect of. α2M* on TGF- ? 2-induced growth inhibition as measured by [methyl-^3H]-thymidine incorporation.
Binding of ^125I-TGF- ? […] After 2.5 hr at 0° C., the cells were washed with binding buffer, and the cell-associated radioactivity was determined. […]

[2] = Plasma clearance of 125I-TGF-β2 with and without α2M* and arachidonic acid; format: in vivo, mice; conditions: control experiments, no α2M*
Procedure: TGF ? β1-α2M* and TGF- ? 2- ? 2M* complexes are cleared from plasma by the ? liver (30). To test the possibility that fatty acids may be able to affect the plasma clearance of TGF ? β and α2M* complexes, ^125I-TGF ? β1 or ^125I-TGF- ? 2 were prei presence or absence of 10 μM arachidonic acid at room temperature for 30 min, and then injected into mice via tail vein according to published procedures (19). At several time intervals (10 sec, 1, 2, 3, 5, 10, 15, 20, 30 and 60 min) about 50 μl of blood was collected and counted by a γ-counter. […] The t 1+α2M* or ^125I-TGF- ? 2+α2M* were approximately 4 min. These twith published values of free ^125I-TGF- ? 1,2 and ^125I-TGF- ? 1,2-α2M* complexes, respe (19). In the presence of arachidonic acid, the t1/2s of ^125I-TGF ? β1+α2M* and ^125I-TGF α2M* were decreased to approximately 1-2 min; these are essentially identical to the t1/2s of free ^125I-TGF- ? 1 and ^125I-TGF ? β2 (FIGS. 7A and B). In control experiments, arachidonic acid did no affect the plasma clearance of free ^125I-TGF ? β1 and ^125I-TGF- ? 2.
Plasma clearance of ^125I-TGF ? β in the presence and absence of ? 2M*-^125I-TGF- ? 1 nM) or ^125I-TGF- ? 2 (1 nM) was pre-incubated with ? […] The radioactivity in the blood sample obtained at 10 s was taken as 100%.

In the case of `CCCCC/C=C\C/C=C\C/C=C\C/C=C\CCCC(=O)O` [arachidonic acid], the “reversal of α2M* inhibition of 125I-TGF-β2 binding to Mv1Lu cells” value [1] is reported as “completely reversed” and the “effect on plasma clearance of free 125I-TGF-β2” value [2] is reported as “did no affect”.

— patent US20040229791A1, “Compositions and methods of modulating TGF-beta activity by fatty acids” (priority 2002, published 2004)
